Laboratory results as given in US8748445B2, “Methods for treating glioma” (The UAB Research Foundation, priority 2004, dated 2014).
“Also recorded” adds a separate entry of the source.

How the values were obtained:
[1] = tested on: glioma cell lines (D-54MG, U-87MG, U-251MG and STTG1) and a primary glioma culture (GBM62); test: growth curves of glioma cells over 5 days; type: cell-based, human
Description: To examine whether the depletion of glutathione via inhibition of cystine uptake by system Xc affects the growth of glioma cells, growth curves for 4 glioma cell lines (D-54MG, U-87MG, U-251MG and STTG1) and a primary glioma culture (GBM62) were established.
In the presence of 0.25 mM (S)-4-CPG, growth of D-54MG cells indeed recovered by the addition of fourfold excess of cystine (FIG. 3E), but not with glutamate (FIG. 3D), the second substrate for system Xc.

caspase-3 = test: activated caspase-3 by Western blot analysis; type: cell-based, human; details: 0.5 mM; D-54MG cells (FIG. 5C)
Description: (§1) Because an accumulation of ROS can lead to apoptotic cell death, the ability of system Xc inhibitors to induce apoptosis in glioma cells was examined. […] Often apoptosis is dependent on caspase activities, so it was determined whether the system Xc inhibitors induce activated caspase-3, which is the convergent enzyme in the caspase-dependent signaling cascade. […] With 1 mM sulfasalazine, 90% of cells died over the 5 d incubation (FIG. 5E).

D-54MG glioma cells [2] = test: BrdU incorporation, ELISA-based assay; type: cell-based, human
Description: (§2) BrdU incorporation was measured using an ELISA-based assay. D-54MG cells were grown in the presence or absence of inhibitors for 24 hours and pulsed for 2 hours with BrdU. The cells were cultured for an additional 48 hours and the amount of incorporated BrdU was measured using alkaline phosphatase conjugated to anti-BrdU antibodies. […] The inhibition of DNA synthesis was also seen in immunocytochemical studies.

[3] = tested on: cortical neuronal cultures; test: survival of cortical neuronal cultures; type: cell-based; details: (S)-4-CPG 0.25 mM and 0.5 mM (FIG. 3C); sulfasalazine data not shown
glioma cells [4] = test: cell cycle: total DNA content by flow cytometry (propidium iodide); type: cell-based, human; details: 0.5 mM (FIG. 4D)
Description: To test whether inhibition of cystine uptake affects a specific stage of the cell cycle, changes in total DNA content were measured using flow cytometry following treatment with 0.5 mM (S)-4-CPG and 0.5 mM sulfasalazine. Cells were fixed with para-formaldehyde and stained with the nuclear marker propidium iodide after incubation with drugs.

D-54MG glioma cells [5] = test: BrdU incorporation, immunocytochemical studies; type: cell-based, human; details: DAPI co-staining (FIG. 4B)
Description: as §2

D-54MG glioma cells [6] = test: chromosomal DNA fragmentation (apoptosis) by flow cytometry; type: cell-based, human; details: 1 mM for 3 days; D-54MG (FIG. 5B)
Description: as §1

[7] = tested on: primary astrocyte cultures; test: growth of primary astrocyte cultures; type: cell-based; details: (S)-4-CPG 0.25 mM and 0.5 mM (FIG. 3C); sulfasalazine data not shown
glioma cells [8] = test: total intracellular glutathione content in glioma cells; type: cell-based, human
Description: To determine if limiting cystine uptake via system Xc reduces the total intracellular glutathione content (GSH and glutathione disulfide), intracellular glutathione concentrations were determined in the presence and absence of sulfasalazine.

glioma cells [9] = test: cell death by flow cytometry using the Live/Dead assay kit; type: cell-based, human
Description: as §1

glioma cells [10] = test: rescue from (S)-4-CPG-induced cell death by caspase inhibitor; type: cell-based, human; details: Boc-D-FMK 100 μM; (S)-4-CPG 0.25 mM (FIG. 5D)
Description: Because an accumulation of ROS can lead to apoptotic cell death, the ability of system Xc inhibitors to induce apoptosis in glioma cells was examined. Exposure of D-54MG glioma cells to 1 mM (S)-4-CPG for 3 days caused 17% of the cell population to be positive for chromosomal DNA fragmentation, a classic manifestation of apoptosis (FIG. 5B). Often apoptosis is dependent on caspase activities, so it was determined whether the system Xc inhibitors induce activated caspase-3, which is the convergent enzyme in the caspase-dependent signaling cascade. […] In the continued presence of 0.5 mM (S)-4-CPG over a 5 d period, 60% of glioma cells died (FIG. 5E). With 1 mM sulfasalazine, 90% of cells died over the 5 d incubation (FIG. 5E).

system Xc = target: T1, system Xc (Homo sapiens, UniProt Q9UPY5); test: 35S-labeled cystine uptake in glioma lines and primary glioma culture; type: cell-based; details: 5 mM L glutamate; data not shown
T1 construct: reduced ^35S-labeled cystine uptake by 60-80% in glioma lines (d-54MG, U-87MG and U-251MG) and a primary glioma culture (GBM62); endogenous in cells; host or cells: human glioma cell lines D-54MG, U-87MG, U-251MG and primary glioma culture GBM62
T1 sequence (Q9UPY5 1-501): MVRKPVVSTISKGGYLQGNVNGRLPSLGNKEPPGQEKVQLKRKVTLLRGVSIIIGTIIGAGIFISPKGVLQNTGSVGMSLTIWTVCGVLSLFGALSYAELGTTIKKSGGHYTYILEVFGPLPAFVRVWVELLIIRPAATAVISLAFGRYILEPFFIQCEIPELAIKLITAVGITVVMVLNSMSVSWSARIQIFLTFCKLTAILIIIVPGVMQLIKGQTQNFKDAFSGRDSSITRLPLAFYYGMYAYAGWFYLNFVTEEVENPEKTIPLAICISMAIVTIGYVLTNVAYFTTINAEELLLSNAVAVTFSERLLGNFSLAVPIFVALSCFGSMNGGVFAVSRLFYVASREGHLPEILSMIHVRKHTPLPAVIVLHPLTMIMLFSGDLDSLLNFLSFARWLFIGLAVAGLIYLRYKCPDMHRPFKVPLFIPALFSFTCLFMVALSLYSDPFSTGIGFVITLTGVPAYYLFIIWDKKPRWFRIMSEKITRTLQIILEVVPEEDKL
T1 sequence (P08195 1-529 partner): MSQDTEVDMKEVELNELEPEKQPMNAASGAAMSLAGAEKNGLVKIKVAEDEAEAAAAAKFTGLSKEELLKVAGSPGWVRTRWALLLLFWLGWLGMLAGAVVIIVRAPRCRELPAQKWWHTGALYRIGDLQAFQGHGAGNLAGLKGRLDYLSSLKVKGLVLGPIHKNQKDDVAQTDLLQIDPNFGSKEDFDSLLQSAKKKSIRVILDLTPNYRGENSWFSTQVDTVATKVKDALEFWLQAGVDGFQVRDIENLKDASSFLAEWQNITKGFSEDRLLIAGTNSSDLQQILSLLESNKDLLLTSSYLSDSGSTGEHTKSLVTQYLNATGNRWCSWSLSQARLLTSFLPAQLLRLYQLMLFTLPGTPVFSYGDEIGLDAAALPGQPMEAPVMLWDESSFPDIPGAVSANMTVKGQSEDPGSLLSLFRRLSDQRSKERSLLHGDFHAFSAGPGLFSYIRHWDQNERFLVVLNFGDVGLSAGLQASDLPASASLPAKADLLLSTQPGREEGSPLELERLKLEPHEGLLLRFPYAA
Excerpt: System Xc is a glutamate-cystine exchanger and can therefore be inhibited if the outward directed gradient for glutamate is eliminated by exposure to high concentrations of extracellular glutamate. The principal hypothesis in this study is that system Xc serves as a pipeline for cellular cystine uptake, with glutamate release being an obligatory by-product. Cystine uptake is the rate-limiting step for the synthesis of GSH, which is the main intracellular antioxidant that protects cells from oxidative stress and resulting reactive oxygen species (ROS) (Jefferies et al., 2003).

## N[C@H](C(=O)O)c1ccc(C(=O)O)cc1 [(S)-4-CPG, (S)-4-carboxyphenylglycine]
[1]; 5 days, 0.1 and 0.25 mM (S)-4-CPG, 0.25 and 0.5 mM sulfasalazine, all glioma cell lines and GBM62 (FIGS. 3A, 3B)
  growth of glioma cells: dose-dependent growth inhibitions
caspase-3
  activated form of caspase-3: increased the activated form of caspase-3
D-54MG glioma cells [2]; 0.25 mM, within 48 hours, D-54MG (FIG. 4A)
  reduction of incorporation of BrdU into chromosomal DNA: 50%
D-54MG glioma cells [2]; 0.5 mM, D-54MG (FIG. 4A)
  reduction of BrdU incorporation relative to 0.25 mM: somewhat larger reduction
[3]
  survival/growth of cortical neuronal cultures: negligible impact; also recorded: Neither (S)-4-CPG (FIG. 3C) nor sulfasalazine (data not shown) affected
Glioma cells [4]
  cell cycle distribution (total DNA content): a reduction of cells in G2 phase and an increase in cells in S phase
D-54MG glioma cells [5]
  incorporation of BrdU, immunocytochemistry: virtually abolished incorporation of BrdU
D-54MG glioma cells [6]
  cell population positive for chromosomal DNA fragmentation: 17%
[7]
  growth of primary astrocyte cultures: negligible impact; also recorded: Neither (S)-4-CPG (FIG. 3C) nor sulfasalazine (data not shown) affected
Glioma cells [8]; 0.25 mM, glioma cells D-54MG, U-87MG, U-251MG and primary glioma culture GBM64 (FIG. 2F)
  intracellular glutathione concentration: depleted intracellular glutathione concentration
Glioma cells [9]; 0.5 mM, continued presence over a 5 d period (FIG. 5E)
  glioma cells died: 60%

## COC(=O)CC(NC(=O)OC(C)(C)C)C(=O)CF [Boc-D-FMK, Boc Asp-fluoromethylketone]
Glioma cells [10]
  rescue from cell death induced by (S)-4-CPG: a significant percentage of cells were rescued from cell death

## N[C@@H](CSSC[C@H](N)C(=O)O)C(=O)O [cystine]
[1]; 0.25 mM (S)-4-CPG plus fourfold excess of cystine (FIG. 3E)
  growth of D-54MG cells in the presence of (S)-4-CPG: recovered
D-54MG glioma cells [2]; inhibition caused by 0.5 mM (S)-4-CPG and 0.5 mM sulfasalazine (FIG. 4C)
  reversal of inhibition of BrdU incorporation by exogenous cystine: able to reverse the inhibition of BrdU incorporation
Glioma cells [9]; 0.5 mM (S)-4-CPG with 1 mM cystine (FIG. 5E)
  prevention of cell death induced by (S)-4-CPG: completely prevented

## N[C@@H](CCC(=O)O)C(=O)O [glutamate]
[1]; 1 mM glutamate with 0.25 mM (S)-4-CPG (FIG. 3D)
  reversal of growth inhibition by (S)-4-CPG: failed to overcome the inhibitory effect
System Xc
  competitive inhibition of cystine uptake compared with both drugs: comparable
Glioma cells [8]; L-glutamate with system Xc inhibitor (FIG. 3D)
  restoration of intracellular glutathione levels: failed to restore intracellular glutathione levels

## CCOC(=O)CNC(=O)[C@H](CS)NC(=O)CC[C@H](N)C(=O)O [glutathione ethyl ester]
[1]; after treatment with 0.4 mM sulfasalazine or (S)-4-CPG, GSHest 1 mM
  D-54MG glioma cell growth on coincubation: completely restored D-54MG glioma cell growth
Glioma cells [8]; sulfasalazine (0.4 mM) treated D-54MG glioma cells (FIG. 6A)
  intracellular glutathione levels on coincubation: replenished intracellular glutathione levels

## vitamin E
[1]; in the presence of (S)-4-CPG (FIG. 5A)
  growth of D-54MG glioma cells with free radical scavenger: partially restored
